The values below are quoted from earlier work in US20260124184A1, “ONCE DAILY ALDOSTERONE SYNTHASE INHIBITOR (R)-(+)-5-(P-CYANOPHENYL)-5,6,7,8-TETRAHYDROIMIDAZO[L,5-A]PYRIDINE” (priority 2022, published 2026).

Molecules are shown by their SMILES.

The target of this data set is aldosterone synthase (Homo sapiens, UniProt P19099). The conditions noted are these: ee of (R) form ≥99%; per WO 2018/078049; cited from earlier work.
Chain of aldosterone synthase (P19099 25-503, species assumed): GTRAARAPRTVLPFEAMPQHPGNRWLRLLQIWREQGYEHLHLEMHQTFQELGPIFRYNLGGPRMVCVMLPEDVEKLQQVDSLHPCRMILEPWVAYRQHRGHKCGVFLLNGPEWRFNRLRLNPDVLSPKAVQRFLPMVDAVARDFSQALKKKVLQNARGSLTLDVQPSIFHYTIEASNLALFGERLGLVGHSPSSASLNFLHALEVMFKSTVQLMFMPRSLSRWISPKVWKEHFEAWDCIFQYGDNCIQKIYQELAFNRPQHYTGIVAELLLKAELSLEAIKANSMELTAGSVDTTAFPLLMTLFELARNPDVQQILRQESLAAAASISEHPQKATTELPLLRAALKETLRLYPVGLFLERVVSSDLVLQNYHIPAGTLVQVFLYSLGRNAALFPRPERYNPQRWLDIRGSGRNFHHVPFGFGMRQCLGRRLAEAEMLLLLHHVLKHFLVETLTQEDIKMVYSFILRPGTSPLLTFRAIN

Take `N#Cc1ccc([C@H]2CCCc3cncn32)cc1` [(R)-(+)-5-(p-cyanophenyl)-5,6,7,8-tetrahydroimidazo[1,5-a]pyridine]: the “aldosterone synthase inhibition, potency” value is given as “low nanomolar” and the “aldosterone synthase inhibition, selectivity” value was “selective”.
